Test results as given in patent publication US10633394B2, “Heterocyclic derivatives and use thereof” (C & C RESEARCH LABORATORIES, priority 2014, dated 2020).

Assays:
Assay type in all cases: cell-based
[1] = test system: MDA-MB-468; assay: Cell growth inhibition assay (CellTiter-Glo), breast cancer cell line MDA-MB-468; details: Homo sapiens; MDA-MB-468 cells, 96 hours
Protocol: (§1) The inhibitory effects of the compounds of the present invention against the growth of cancer cells were evaluated as shown below. The cancer cell lines including stomach cancer cell line (NCI-N87) and breast cancer cell line (MDA-MB-468) were cultured under the protocol provided by each supplier. Each type of cells to be used in experiments was sub-cultured in a 96-well plate by counting the exact number of cells using Tali™ Image-based Cytometer (Life Technologies). In a 96-well plate, NCI-N87 was employed with 5,000 cells/well; and MDA-MB-468 was employed with 10,000 cells/well. The cells were treated with the compounds listed in Examples which were diluted in various concentrations. Upon completion of the compounds treatment, NCI-N87 cells were cultured at 37° C. under 5% CO2 for 96 hours, and MDA-MB-468 cells were cultured at 37° C. in air for 96 hours. Subsequently, the cells were observed under microscope and drug precipitation and particular findings were investigated and recorded. And then, the 96-well plate was placed at room temperature for 30 minutes, added with 20 μL/well of CellTiter-Glo solution (Cat No. G7573, Promega) and shaken for 10 minutes, followed by being subjected to the measurement using PHERAstar™ microplate reader (BMG LABTECH) according to the supplier's general luminometer protocol. Wells where only culture liquid added without cell plating were used as a negative control, whereas wells where culture liquid containing 0.1% DMSO instead of the compounds listed in Examples were used as a positive control.

[2] = test system: NCI-N87; assay: Cell growth inhibition assay (CellTiter-Glo), stomach cancer cell line NCI-N87; details: Homo sapiens; NCI-N87 cells, 96 hours
Protocol: as §1

[3] = target: T1, STAT3 (Homo sapiens, UniProt P40763); assay: STAT3 reporter gene (luciferase) assay in LNCaP stable cell line stimulated with IL-6; details: LNCaP stable cell line (pSTAT3-TA-luc), IL-6 10 ng/mL, 24 hours
T1 construct: plasmid pSTAT3-TA-luc), which contains a stably operating STAT3 promoter; endogenous in cells
Protocol: 1-1) Experiment on the Inhibition of STAT3 Activity
A human prostate cancer cell line (LNCaP stable cell line; plasmid pSTAT3-TA-luc), which contains a stably operating STAT3 promoter, was cultured in RPMI1640 medium (Cat No. 11875, Life Technologies) containing 10% fetal bovine serum (FBS) (Cat No. SH30396, Thermo Scientific) and 150 μg/mL G-418 solution (Cat No. 04 727 894 001, Roche). The reporter gene assay using LNCaP stable cell line was performed in RPMI1640 medium containing 3% DCC-FBS without G-418 solution. LNCaP stable cells were plated in two (2) white 96-well plates with 30,000 cells/50 μL in each well. The cells were cultured at 37° C., under 5% CO2 for 24 hours, and then treated with the compounds listed in Examples which were diluted in various concentrations. Subsequently, IL-6 was added to each well with a final concentration of 10 ng/mL. Upon completion of the treatment with the compounds and IL-6, the cells were cultured at 37° C., under 5% CO2 for 24 hours. The plates were observed under microscope and drug precipitation and particular findings were investigated and recorded.
The luciferase assay and the cell viability assay were performed respectively with one of the two plates. For the luciferase assay, the liquid media in the 96-well plate was removed, and then, 20 μL of passive cell lysis buffer was added to each well. After shaking the plate for 30 minutes, luciferase activities of each well were measured in a PHERAstar™ microplate reader (BMG LABTECH) using a luciferase assay system (Cat No. E1501, Promega). For the cell viability assay, the 96-well plate was placed at room temperature for 30 minutes, added with 20 μL/well of CellTiter-Glo solution (Cat No. G7573, Promega), and shaken for 10 minutes in order to measure cytotoxicity caused by the compounds listed in Examples with a PHERAstar™ microplate reader (BMG LABTECH). Wells without 0.1% DMSO and stimulation were used as a negative control and wells with 0.1% DMSO and stimulation were used as a positive control.
The results of evaluation on the inhibitory effect of the compounds listed in the Examples on the dimerization of STAT3 and STAT1 obtained via the STAT3 and STAT1 reporter gene assays are shown in Table 6 below.

T1 sequence (P40763 whole entry): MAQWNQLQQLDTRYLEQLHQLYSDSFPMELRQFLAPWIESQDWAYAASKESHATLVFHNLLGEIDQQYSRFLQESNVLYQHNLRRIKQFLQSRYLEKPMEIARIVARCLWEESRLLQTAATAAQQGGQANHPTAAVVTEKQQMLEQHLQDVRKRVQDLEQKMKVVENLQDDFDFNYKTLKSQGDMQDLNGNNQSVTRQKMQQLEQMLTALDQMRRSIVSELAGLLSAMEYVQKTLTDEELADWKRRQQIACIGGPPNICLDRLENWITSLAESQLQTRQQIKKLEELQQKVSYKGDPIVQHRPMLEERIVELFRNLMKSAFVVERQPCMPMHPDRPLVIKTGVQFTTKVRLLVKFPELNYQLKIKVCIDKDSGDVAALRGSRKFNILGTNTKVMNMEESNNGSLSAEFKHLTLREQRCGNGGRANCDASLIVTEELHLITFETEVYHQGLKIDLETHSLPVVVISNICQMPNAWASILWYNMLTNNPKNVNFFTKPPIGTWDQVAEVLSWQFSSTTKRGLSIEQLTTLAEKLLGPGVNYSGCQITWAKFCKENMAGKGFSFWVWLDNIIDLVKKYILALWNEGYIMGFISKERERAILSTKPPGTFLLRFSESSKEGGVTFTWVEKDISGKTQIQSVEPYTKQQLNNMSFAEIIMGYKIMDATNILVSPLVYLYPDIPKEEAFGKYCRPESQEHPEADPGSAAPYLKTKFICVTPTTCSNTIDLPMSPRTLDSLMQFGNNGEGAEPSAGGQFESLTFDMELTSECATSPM

Row | Compound | IC50 [1] [µM] | IC50 [2] [µM] | IC50 [3] [µM]
1 | CS(=O)(=O)C1CCOc2cc3sc(C(=O)Nc4cc(Cl)nc(Oc5ccc(Cl)cc5)c4)cc3cc21 (racemic) [Example 8, N-(2-chloro-6-(4-chlorophenoxy)pyridin-4-yl)-4-(methylsulfonyl)-3,4-dihydro-2H-thieno[3,2-g]chromene-7-carboxamide] | 0.0032 | 0.031 | 0.024
2 | CS(=O)(=O)N1CCOc2cc3sc(C(=O)Nc4cc(Cl)nc(Oc5ccc(Cl)cc5)c4)cc3cc21 [Example 1, N-(2-chloro-6-(4-chlorophenoxy)pyridin-4-yl)-1-(methylsulfonyl)-2,3-dihydro-1H-thieno[3′,2′:4,5]benzo[1,2-b][1,4]oxazine-7-carboxamide] | – | 0.0083 | 0.0026
3 | CC1(C)CN(S(C)(=O)=O)c2cc3cc(C(=O)Nc4cc(Cl)nc(Oc5ccc(Cl)cc5)c4)sc3cc2O1 [Example 2, N-(2-chloro-6-(4-chlorophenoxy)pyridin-4-yl)-3,3-dimethyl-1-(methylsulfonyl)-2,3-dihydro-1H-thieno[3′,2′:4,5]benzo[1,2-b][1,4]oxazine-7-carboxamide] | – | 1.2 | 0.17
4 | CS(=O)(=O)N1CCCOc2cc3sc(C(=O)Nc4cc(Cl)nc(Oc5ccc(Cl)cc5)c4)cc3cc21 [Example 3, N-(2-chloro-6-(4-chlorophenoxy)pyridin-4-yl)-1-(methylsulfonyl)-1,2,3,4-tetrahydrothieno[3′,2′:4,5]benzo[1,2-b][1,4]oxazepine-8-carboxamide] | – | 0.045 | 0.01
5 | CC1(C)CCN(S(C)(=O)=O)c2cc3cc(C(=O)Nc4cc(Cl)nc(Oc5ccc(Cl)cc5)c4)sc3cc21 [Example 4, N-(2-chloro-6-(4-chlorophenoxy)pyridin-4-yl)-8,8-dimethyl-5-(methylsulfonyl)-5,6,7,8-tetrahydrothieno[2,3-g]quinoline-2-carboxamide] | – | 4.1 | 0.93
6 | CS(=O)(=O)N1CCCc2cc3sc(C(=O)Nc4cc(Cl)nc(Oc5ccc(Cl)cc5)c4)cc3cc21 [Example 6, N-(2-chloro-6-(4-chlorophenoxy)pyridin-4-yl)-5-(methylsulfonyl)-5,6,7,8-tetrahydrothieno[2,3-g]quinoline-2-carboxamide] | – | 0.0055 | 0.003
7 | CN1CCN(S(C)(=O)=O)c2cc3cc(C(=O)Nc4cc(Cl)nc(Oc5ccc(Cl)cc5)c4)sc3cc21 [Example 7, N-(2-chloro-6-(4-chlorophenoxy)pyridin-4-yl)-4-methyl-1-(methylsulfonyl)-1,2,3,4-tetrahydrothieno[2,3-g]quinoxaline-7-carboxamide] | 0.0065 | 0.027 | 0.012
8 | CS(=O)(=O)C1CCCOc2cc3sc(C(=O)Nc4cc(Cl)nc(Oc5ccc(Cl)cc5)c4)cc3cc21 (stereo not drawn) [Example 9, N-(2-chloro-6-(4-chlorophenoxy)pyridin-4-yl)-5-(methylsulfonyl)-2,3,4,5-tetrahydrothieno[3′,2′:4,5]benzo[1,2-b]oxepine-8-carboxamide] | 0.023 | 0.067 | 0.029
9 | CS(=O)(=O)C1CCCc2cc3sc(C(=O)Nc4cc(Cl)nc(Oc5ccc(Cl)cc5)c4)cc3cc21 (stereo not drawn) [Example 10, N-(2-chloro-6-(4-chlorophenoxy)pyridin-4-yl)-5-(methylsulfonyl)-5,6,7,8-tetrahydronaphtho[2,3-b]thiophene-2-carboxamide] | 0.0019 | 0.006 | 0.0026
10 | CC1(S(C)(=O)=O)CCOc2cc3sc(C(=O)Nc4cc(Cl)nc(Oc5ccc(Cl)cc5)c4)cc3cc21 (stereo not drawn) [Example 11, N-(2-chloro-6-(4-chlorophenoxy)pyridin-4-yl)-4-methyl-4-(methylsulfonyl)-3,4-dihydro-2H-thieno[3,2-g]chromene-7-carboxamide] | 0.0052 | 0.01 | 0.006
11 | CS(=O)(=O)C1COCc2cc3sc(C(=O)Nc4cc(Cl)nc(Oc5ccc(Cl)cc5)c4)cc3cc21 (stereo not drawn) [Example 12, N-(2-chloro-6-(4-chlorophenoxy)pyridin-4-yl)-5-(methylsulfonyl)-5,8-dihydro-6H-thieno[3,2-g]isochromene-2-carboxamide] | 0.0028 | 0.0018 | 0.003
12 | CS(=O)(=O)C1(F)CCOc2cc3sc(C(=O)Nc4cc(Cl)nc(Oc5ccc(Cl)cc5)c4)cc3cc21 (stereo not drawn) [Example 13, N-(2-chloro-6-(4-chlorophenoxy)pyridin-4-yl)-4-fluoro-4-(methylsulfonyl)-3,4-dihydro-2H-thieno[3,2-g]chromene-7-carboxamide] | 0.0066 | 0.025 | 0.0081
13 | CS(=O)(=O)C1CCC(F)(F)c2cc3sc(C(=O)Nc4cc(Cl)nc(Oc5ccc(Cl)cc5)c4)cc3cc21 (stereo not drawn) [Example 14, N-(2-chloro-6-(4-chlorophenoxy)pyridin-4-yl)-8,8-difluoro-5-(methylsulfonyl)-5,6,7,8-tetrahydronaphtho[2,3-b]thiophene-2-carboxamide] | 0.026 | 0.16 | 0.029
14 | Cc1ccc(Oc2cc(NC(=O)c3cc4cc5c(cc4s3)OCCC5S(C)(=O)=O)cc(Cl)n2)cc1 (stereo not drawn) [Example 15, N-(2-chloro-6-(p-tolyloxy)pyridin-4-yl)-4-(methylsulfonyl)-3,4-dihydro-2H-thieno[3,2-g]chromene-7-carboxamide] | 0.0089 | 0.035 | 0.018
15 | CS(=O)(=O)C1CCOc2cc3sc(C(=O)Nc4cc(Cl)nc(Oc5cc(Cl)ccc5F)c4)cc3cc21 (stereo not drawn) [Example 35, N-(2-chloro-6-(5-chloro-2-fluorophenoxy)pyridin-4-yl)-4-(methylsulfonyl)-3,4-dihydro-2H-thieno[3,2-g]chromene-7-carboxamide] | – | – | 0.01
16 | CS(=O)(=O)C1CCOc2cc3sc(C(=O)Nc4cc(Cl)nc(Oc5cccc(Cl)c5F)c4)cc3cc21 (stereo not drawn) [Example 36, N-(2-chloro-6-(3-chloro-2-fluorophenoxy)pyridin-4-yl)-4-(methylsulfonyl)-3,4-dihydro-2H-thieno[3,2-g]chromene-7-carboxamide] | – | – | 0.014
17 | Cc1ccc(Oc2cc(NC(=O)c3cc4cc5c(cc4s3)OCCC5S(C)(=O)=O)cc(Cl)n2)cc1Cl (stereo not drawn) [Example 38, N-(2-chloro-6-(3-chloro-4-methylphenoxy)pyridin-4-yl)-4-(methylsulfonyl)-3,4-dihydro-2H-thieno[3,2-g]chromene-7-carboxamide] | – | – | 0.0088
18 | CS(=O)(=O)C1CCOc2cc3sc(C(=O)Nc4cc(Cl)nc(Oc5ccccc5C(F)(F)F)c4)cc3cc21 (stereo not drawn) [Example 39, N-(2-chloro-6-(2-(trifluoromethyl)phenoxy)pyridin-4-yl)-4-(methylsulfonyl)-3,4-dihydro-2H-thieno[3,2-g]chromene-7-carboxamide] | – | – | 0.014
19 | CS(=O)(=O)N1CCNc2cc3sc(C(=O)Nc4cc(Cl)nc(Oc5ccc(Cl)cc5)c4)cc3cc21 [Example 50, N-(2-chloro-6-(4-chlorophenoxy)pyridin-4-yl)-1-(methylsulfonyl)-1,2,3,4-tetrahydrothieno[2,3-g]quinoxaline-7-carboxamide] | – | 0.0091 | 0.0082
20 | CC(C)(c1ccc(Cl)cc1)c1cc(Cl)cc(NC(=O)c2cc3cc4c(cc3s2)OCCN4S(C)(=O)=O)c1 [Example 56, N-(3-chloro-5-(2-(4-chlorophenyl)propan-2-yl)phenyl)-1-(methylsulfonyl)-2,3-dihydro-1H-thieno[3′,2′:4,5]benzo[1,2-b][1,4]oxazine-7-carboxamide] | – | 0.019 | 0.0028
